In ChEMBL document CHEMBL1133426, “2-Substituted paullones: CDK1/cyclin B-inhibiting property and in vitro antiproliferative activity” (Bioorg Med Chem Lett, 2000):

Key:
cells = assay type: functional; details: Homo sapiens
Description: Inhibition of proliferation in NCI panel of 60 human tumor cell lines

HCT-116 = test: cells; assay type: functional; details: Homo sapiens
Description: Inhibition of HCT116 colon cancer cell proliferation

| SMILES | GI50 (cells) [µM] | GI50 (HCT-116) [µM] |
| --- | --- | --- |
| O=C1Cc2c([nH]c3ccc(C(F)(F)F)cc23)-c2cc(C#CC3(O)CCCCC3)ccc2N1 | 2 | 2.51 |
| O=C1Cc2c([nH]c3ccc(C(F)(F)F)cc23)-c2cc(C#CCO)ccc2N1 | 12.6 | 3.16 |
| O=C1Cc2c([nH]c3ccc(Br)cc23)-c2ccccc2N1 [KENPAULLONE] | 39.8 |  |
